Measurements published in ChEMBL document CHEMBL1145766, “2-(Anilinomethyl)imidazolines as alpha1 adrenergic receptor agonists: alpha1a subtype selective 2'-heteroaryl compounds” (Bioorg Med Chem Lett, 2003).

How the values were obtained:
[1] = molecular target: T1, Alpha-1B adrenergic receptor (Homo sapiens, UniProt P35368); assay: Agonism of human alpha-1B adrenergic receptor, expressed in rat 1 fibroblast cells; format: functional, cell-based
T1 sequence (P35368 whole entry): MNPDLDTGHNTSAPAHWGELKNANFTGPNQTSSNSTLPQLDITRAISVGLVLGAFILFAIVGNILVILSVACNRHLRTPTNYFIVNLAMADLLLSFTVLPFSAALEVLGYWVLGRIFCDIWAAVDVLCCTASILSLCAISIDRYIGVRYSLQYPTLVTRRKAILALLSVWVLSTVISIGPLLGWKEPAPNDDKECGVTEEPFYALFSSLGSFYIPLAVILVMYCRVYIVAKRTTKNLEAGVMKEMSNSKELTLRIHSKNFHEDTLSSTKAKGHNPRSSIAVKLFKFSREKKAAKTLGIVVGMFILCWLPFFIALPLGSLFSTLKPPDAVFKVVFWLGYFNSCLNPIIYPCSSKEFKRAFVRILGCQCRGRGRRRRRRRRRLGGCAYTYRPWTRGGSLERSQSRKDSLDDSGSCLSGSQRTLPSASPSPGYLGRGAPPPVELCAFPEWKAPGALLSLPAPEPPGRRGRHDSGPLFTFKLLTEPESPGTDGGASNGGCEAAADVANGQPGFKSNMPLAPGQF

[2] = molecular target: T2, Alpha-1A adrenergic receptor (Homo sapiens, UniProt P35348); assay: Agonism of human alpha-1A adrenergic receptor expressed in rat 1 fibroblast cells; format: functional, cell-based
T2 sequence (P35348 whole entry): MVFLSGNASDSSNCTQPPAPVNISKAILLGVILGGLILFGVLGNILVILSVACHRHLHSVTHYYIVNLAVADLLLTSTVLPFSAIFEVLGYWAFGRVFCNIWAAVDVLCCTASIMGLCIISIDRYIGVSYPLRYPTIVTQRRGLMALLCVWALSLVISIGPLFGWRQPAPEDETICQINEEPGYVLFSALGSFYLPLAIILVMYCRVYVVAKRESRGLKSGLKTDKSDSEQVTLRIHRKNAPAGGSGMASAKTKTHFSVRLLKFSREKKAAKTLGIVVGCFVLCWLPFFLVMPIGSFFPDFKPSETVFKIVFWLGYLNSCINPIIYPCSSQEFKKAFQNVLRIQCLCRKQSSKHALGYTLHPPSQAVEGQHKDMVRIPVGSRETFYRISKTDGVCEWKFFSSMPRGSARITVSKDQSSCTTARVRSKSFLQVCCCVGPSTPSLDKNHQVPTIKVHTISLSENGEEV

[3] = molecular target: T3, Alpha-1B adrenergic receptor (Homo sapiens) (UniProt P35368); assay: Maximal response assayed via calcium mobilization to human alpha-1B adrenergic receptor compared to percent of the […] phenylephrine response.; format: functional
T3 sequence (whole entry): T1 sequence (P35368 whole entry)

[4] = molecular target: T4, Alpha-1D adrenergic receptor (Homo sapiens) (UniProt P25100); assay: Maximal response via calcium mobilization towards Human Alpha-1D adrenergic receptor as percent relative to […] phenylephrine; format: functional
T4 sequence (whole entry): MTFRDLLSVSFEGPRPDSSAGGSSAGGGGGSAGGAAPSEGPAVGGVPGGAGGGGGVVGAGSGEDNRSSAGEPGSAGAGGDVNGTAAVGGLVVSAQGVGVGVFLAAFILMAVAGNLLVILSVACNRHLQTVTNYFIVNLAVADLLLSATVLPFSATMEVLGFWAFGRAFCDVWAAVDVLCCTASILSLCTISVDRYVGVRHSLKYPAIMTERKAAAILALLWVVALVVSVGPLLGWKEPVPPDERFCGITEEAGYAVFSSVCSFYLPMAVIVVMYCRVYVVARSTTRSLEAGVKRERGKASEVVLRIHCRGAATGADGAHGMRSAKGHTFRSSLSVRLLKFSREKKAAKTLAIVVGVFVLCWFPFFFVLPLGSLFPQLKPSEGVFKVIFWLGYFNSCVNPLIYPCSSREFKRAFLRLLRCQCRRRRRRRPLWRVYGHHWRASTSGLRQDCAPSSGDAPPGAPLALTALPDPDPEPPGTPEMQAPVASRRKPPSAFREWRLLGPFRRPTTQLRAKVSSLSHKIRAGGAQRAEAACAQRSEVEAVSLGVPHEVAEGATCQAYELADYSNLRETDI

[5] = molecular target: T5, Alpha-1A adrenergic receptor (Homo sapiens) (UniProt P35348); assay: Maximal response assayed via calcium mobilization to the human alpha-1A adrenergic receptor compared the percent of the […] phenylephrine response; format: functional
T5 sequence (whole entry): T2 sequence (P35348 whole entry)

[6] = molecular target: T6, Alpha-1D adrenergic receptor (Homo sapiens, UniProt P25100); assay: Agonism of recombinant human alpha-1D adrenergic receptor, expressed in rat 1 fibroblast cells; format: functional, cell-based
T6 sequence (P25100 whole entry): T4 sequence (whole entry)

[7] = molecular target: T4, Alpha-1D adrenergic receptor (Homo sapiens); assay: Maximal response via calcium mobilization towards Human Alpha-1D adrenergic receptor as percent rtelative to […] phenylephrine; format: functional
[8] = molecular target: T6, Alpha-1D adrenergic receptor; assay: Inhibitory concentration against radioligand binding to human aAlpha-1D adrenergic receptor, expressed in rat 1 fibroblast cells; format: cell-based
[9] = molecular target: T1, Alpha-1B adrenergic receptor; assay: Inhibitory concentration against radioligand binding to human Alpha-1B adrenergic receptor, expressed in rat 1 fibroblast cells; format: cell-based
[10] = molecular target: T2, Alpha-1A adrenergic receptor; assay: Inhibitory concentration against radioligand binding to human Alpha-1A adrenergic receptor, expressed in rat 1 fibroblast cells; format: cell-based
[11] = molecular target: T6, Alpha-1D adrenergic receptor; assay: Inhibitory concentration against radioligand binding to human Alpha-1D adrenergic receptor, expressed in rat 1 fibroblast cells; format: cell-based

EC50 [1] [nM] | EC50 [2] [nM] | Max response [3] [%] | Max response [4] [%] | Max response [5] [%] | EC50 [6] [nM] | Max response [7] [%] | IC50 [8] [nM] | IC50 [9] [nM] | IC50 [10] [nM] | IC50 [11] [nM] | Compound
50.1 | 3.16 | 33 | 29 | 116 | 15.8 | – | – | – | – | – | Cn1ccc(-c2ccccc2NCC2=NCCN2)n1
> 5010 | 1000 | 0 | – | 98 | > 5010 | 0 | – | – | – | – | Cc1nc(-c2ccccc2NCC2=NCCN2)n(C)n1
> 5010 | 794 | 0 | – | 87 | > 5010 | 0 | – | – | – | – | Cc1n[nH]c(-c2ccccc2NCC2=NCCN2)n1
316 | 12.6 | 74 | – | 96 | 251 | 57 | – | – | – | – | CCCn1ncnc1-c1ccccc1NCC1=NCCN1
79.4 | 1.26 | 72 | 62 | 112 | 20 | – | – | – | – | – | c1ccc(-c2cn[nH]c2)c(NCC2=NCCN2)c1
> 100000 | 63.1 | 0 | 0 | 81 | > 100000 | – | – | – | – | – | CCn1nccc1-c1ccccc1NCC1=NCCN1
39.8 | 6.31 | 104 | 92 | 88 | 200 | – | – | – | – | – | Cn1ccnc1-c1ccccc1NCC1=NCCN1
200 | 200 | 83 | – | 86 | 398 | 66 | – | – | – | – | CCCCn1ncnc1-c1ccccc1NCC1=NCCN1
> 100000 | 6.31 | 0 | – | 104 | 3160 | 37 | – | – | – | – | CC(C)n1ncnc1-c1ccccc1NCC1=NCCN1
63.1 | 1.26 | 94 | – | 107 | 126 | 55 | – | – | – | – | CCn1ncnc1-c1ccccc1NCC1=NCCN1
> 100000 | 2.51 | 0 | 0 | 93 | > 100000 | – | – | – | – | – | CCn1cccc1-c1ccccc1NCC1=NCCN1
> 100000 | 20 | 0 | 32 | 103 | 251 | – | – | – | – | – | Cn1cccc1-c1ccccc1NCC1=NCCN1
> 100000 | 25.1 | 0 | 0 | 78 | > 100000 | – | – | – | – | – | CCn1ccc(-c2ccccc2NCC2=NCCN2)n1
> 100000 | 251 | 0 | 0 | 59 | > 100000 | – | – | – | – | – | CCCn1nccc1-c1ccccc1NCC1=NCCN1
5.01 | 1 | 95 | – | 104 | 20 | 54 | 39.8 | 158 | 25.1 | – | c1ccc(-c2cc[nH]n2)c(NCC2=NCCN2)c1
39.8 | 2 | 93 | – | 91 | 63.1 | 116 | – | – | – | – | Cn1ncnc1-c1ccccc1NCC1=NCCN1
> 100000 | > 100000 | 0 | 0 | 0 | > 100000 | – | – | – | – | – | CCn1cc(-c2ccccc2NCC2=NCCN2)cn1
> 100000 | 398 | 0 | 0 | 39 | > 100000 | – | – | – | – | – | Cn1cc(-c2ccccc2NCC2=NCCN2)cn1
> 100000 | 50.1 | 0 | 0 | 78 | > 100000 | – | – | – | – | – | Cc1ccc(-c2ccccc2NCC2=NCCN2)n1C
> 100000 | > 100000 | 0 | 0 | 0 | > 100000 | – | – | – | – | – | CC(C)n1nccc1-c1ccccc1NCC1=NCCN1
> 100000 | 10 | 0 | 0 | 108 | > 100000 | – | – | 398 | 200 | 501 | Cn1nccc1-c1ccccc1NCC1=NCCN1
> 100000 | 79.4 | 0 | – | 91 | > 100000 | 0 | – | – | – | – | FC(F)(F)Cn1ncnc1-c1ccccc1NCC1=NCCN1
> 100000 | 316 | 0 | 0 | 76 | > 100000 | – | – | – | – | – | FC(F)(F)Cn1nccc1-c1ccccc1NCC1=NCCN1
5.01 | 0.794 | 100 | – | 135 | 3.98 | 123 | – | – | – | – | c1ccc(-c2nc[nH]n2)c(NCC2=NCCN2)c1
